As usually defined, the EC50 is the midpoint of the concentration-response curve.

One assay deals with HIV. Description: Anti-HIV evaluation by MTT-tetrazolium method (inhibition of CPE in MT-2 / CEM-SS cells). The note with it: Human immunodeficiency virus 1, CEM-SS; read-out: Antiviral Activities (EC50) HIV. The format is cell-based. On the procedure: This example illustrates the anti-HIV activity of various coumarin and chromene compounds which were evaluated using the published MTT-tetrazolium methods^8. Retroviral agents AZT and DDC were used as controls for comparison purposes.
The cells used for screening were the MT-2 and the human T4-lymphoblastoid cell line, CEM-SS, and were grown in RPMI 1640 medium supplemented with 10% fetal (v/v) heat-inactivated fetal calf serum and also containing 100 units/mL penicillin, 100 μg/mL streptomycin, 25 mM HEPES and 20 μg/mL gentamicin. The medium used for dilution of drugs and maintenance of cultures during the assay was the same as above. The HTLV-IIIB and HTLV-RF were propagated in CEM-SS. The appropriate amounts of the pure compounds for anti-HIV evaluations were dissolved in DMSO, then diluted in medium to the desired initial concentration. The concentrations (M medium) employed were […]; 0.001 μM; 0.0032 μM; 0.01 μM; 0.032 μM; 0.1 μM; 0.32 μM; 1 μM; 3.2 μM; 10 μM; 32 μM; and 100 μM. Each dilution was added to plates in the amount of 100 μL/well. Drugs were tested in triplicate wells per dilution with infected cells while in duplicate wells per dilution with uninfected cells for evaluation of cytotoxicity. On day 6 (CEM-SS cells) and day 7 (MT-2 cells) post-infection, the viable cells were measured with a tetrazolium salt, MTT (5 mg/mL), added to the test plates. A solution of 20% SDS in 0.001 N HCl is used to dissolve the MTT formazan produced. The optical density value was a function of the amount of formazan produced which was proportional to the number of viable cells. The percent inhibition of CPE per drug concentration was measured as a test over control and expressed in percent (T/C %).
(Tetrazolium assays rely on reduction of a dye to a coloured formazan, in cell work by metabolically active cells.)

The next assay deals with HBV. The assay is described as follows: HBV replication in cultures of 2.2.15 cells (HBV DNA blot hybridization). The note with it: Hepatitis B virus; read-out: Antiviral Activities (EC50) HBV. It counts as cell-based. As to the method:
Test compounds are then added daily for a continuous 9 day period. Culture medium (changed daily during the treatment period) is collected and stored for analysis of extracellular (virion) HBV DNA after 0, 3, 6, and 9 days of treatment. Treated cells are lysed 24 hours following day 9 of treatment for the analysis of intracellular HBV genomic forms. HBV DVA is then analyzed in a quantitative and qualitative manner for overall levels of HBV DNA (both extracellular and intracellular DNA) and the relative rate of HBV replication (intracellular DNA).
Both intracellular and extracellular HBV DNA are analyzed in order to (i) allow for verification of compound efficacy and (ii) provide possible data on the target site in the HBV replication pathway for the compound from examination of the pattern of viral replicative forms. The culture medium is changed daily during the treatment period to (i) prevent the buildup of potentially toxic metabolites derived from test compounds and (ii) provide an analysis of HBV virion production during discrete 24-hour intervals which enables a quantitative comparison of any effect on virion production.
The analysis of HBV DNA is performed using blot hybridization techniques (Southern and slot blot) and [^32P]-labeled HBV-specific probes. HBV DNA levels are measured by comparison to known amounts of HBV DNA standards applied to every nitrocellulose membrane (gel or slot blot). An AMBIS beta scanner, which measures the radioactive decay of the hybridized probes directly from the nitrocellulose membranes, is used for the quantitative analysis. Standard curves, generated by multiple analyses, are used to correlate CPM measurements made by the beta scanner with relative levels of target HBV DNA. The levels of HBV virion DNA released into the culture medium are analyzed by a slot blot hybridization procedure. HBV DNA levels are then compared to those at Day 0 to determine the effect of drug treatment.
The levels of RI and episomal monomers are used as an indicator of the relative level of HBV replication. Integrated HBV DNA is used to normalize the relative amounts of DNA in each lane because the levels of this class of HBV DNA would be expected to remain constant on a per cell basis. […] Inhibition of HBV DNA replication is indicated by the loss of RI without changes in the level of integrated HBV DNA.

The subject of the next assay is Measles Virus. Description: Measles virus antiviral assay (CPE inhibition, neutral red uptake, virus yield). It counts as cell-based, Measles virus strain CC. To be noted: Measles morbillivirus.
The test system of assay [1] is Respiratory Syncytial Virus. Description: Respiratory syncytial virus antiviral assay (CPE inhibition, neutral red uptake). It counts as cell-based, Respiratory syncytial virus strain Utah 89. The note with it: human respiratory syncytial virus; readout not stated; read-out: Antiviral Activities (EC50) Respiratory Syncitial.
In the next assay the test system is VZV. Description: VZV plaque reduction assay in human foreskin fibroblast cells. It counts as cell-based, Varicella Zoster Virus (Ellen strain). On the procedure:
[table] Two days prior to use, HFF cells are plated into six-well plates and incubated at 37° C. with 5% CO2 and 90% humidity. On the date of assay, the drug is made up at twice the desired concentration in 2×MEM and then serially diluted 1:5 in 2×MEM using six concentrations of drug. […] The media is then aspirated from the wells and 0.2 mL of virus is added to each well in duplicate with 0.2 mL of media being added to drug toxicity wells. The plates are then incubated for one hour with shaking every fifteen minutes. […] The drug agarose mixture is applied to each well in 2 mL volume and the plates then incubated for three days, after which the cells were stained with a 1.5% solution of neutral red. At the end of 4-6 hr incubation period, the stain is aspirated, and plaques counted using a stereomicroscope at 10× magnification. The procedure is essentially the same as for the HSV plaque assay described above with two exceptions: 1. After addition of the drug, the plates are incubated for ten days. 2.
Background: Plaques are areas of infected cells; plaque reduction assays count them against a control.

A further assay concerns EBV. Description: EBV assay: superinfection of Raji or Daudi cells with P3HR-1, immunofluorescence for EA and VCA. It counts as cell-based, Epstein-Barr Virus (P3HR-1). The text has this:
There are two prototypes of infectious EBV. One is exemplified by the virus derived from supernatant fluids of the P3HR-1cell line. This cell line produces nontransforming virus that causes the production of early antigen (EA) after primary infection or superinfection of B cell lines. The other prototype is exemplified by the B-95-8 virus. This virus immortalized cord blood lymphocytes and induced tumors in marmosets. […] The virus used in our assays is P3HR-1.
Ramos is an exceptional B cell line derived from Burkitt's lymphoma tumor but containing no detectable EBV genome copies and is EBNA negative. Ramos/AW was obtained by in vitro infection of Ramos with the P3HR-1 virus and contains one resident EBV genome copy/cell. Raji is a Burkitt's lymphoma cell line containing 60 EBV genomes/cell, and will be the primary cell used for screening antiviral activity against EBV EA expression. Daudi is a low level producer that contains 152 EBV genome copies/cell. It spontaneously expresses EBV EA in 0.25%-0.5% of the cells. It will be used in follow-up studies to confirm activity. These cell lines respond to superinfection by EBV by expressing EA(D), EA(R), and VCA. All cell lines are maintained in RPMI-1640 medium supplemented by 10% FCS, L-glutamine and 100 μg/mL gentamicin. The cultures are fed twice weekly and the cell concentration adjusted to 3×10^5/mL. The cells are kept at 37° C. in a humidified atmosphere with 5% CO2.
Cells are infected with the P3HR-1 strain of EBV and the drugs to be tested are added after adsorption (45 minutes at 37° C.) and washing of the cell cultures. The cultures are incubated for two days in complete medium to allow viral gene expression. Following the 48 hr incubation period, the number of cells of each sample are counted and smears made. Monoclonal antibodies to the different EA components and VCA are then added to the cells incubated and washed. This is followed by a fluorescein conjugated rabbit anti-mouse Ig antibody; and the number of fluorescence positive cells in the smears are counted. The total number of cells in the cultures positive for EA or VCA are then calculated and compared.

The next assay relates to Rhinovirus. The assay is described as follows: Rhinovirus antiviral assay (CPE inhibition, neutral red uptake, virus yield). The format is cell-based. To be noted: Enterovirus.
Where [2] appears, read: CPE inhibition, read-out: Antiviral Activities (EC50) Measles (CPE).
[3] abbreviates: neutral red (NR) dye uptake, read-out: Antiviral Activities (EC50) Measles (NR).
[4] abbreviates: Human alphaherpesvirus 3, Fibroblast; read-out: Antiviral Activities (EC50) VZV.
[5] abbreviates: human gammaherpesvirus 4; read-out: Antiviral Activities (EC50) EBV.
Where [6] appears, read: readout not stated, read-out: Antiviral Activities (EC50) Rhinovirus.

Molecules are shown by their SMILES. Values after ≈ are worked out from the molar mass of the structure shown. Where two headings read alike, the source gives them in different places.

In the case of `CCCc1cc(=O)oc2cc(OC(=O)CC)c3c(c12)OC(C)(C)C=C3`, the EC50 in the assay on HIV is over 2 µg/mL; in the assay on HBV it was over 10 µg/mL; in the assay with Measles Virus (setting [2]) it was 0.4 µg/mL (≈ 1.17 µM); in the assay with Measles Virus (setting [3]), 0.3 µg/mL (≈ 0.876 µM); in the assay on Measles Virus (read-out: Antiviral Activities (EC50) Measles (virus yield)), 0.32 µg/mL (≈ 0.935 µM); in assay [1], 1 µg/mL (≈ 2.92 µM). In addition, the concentration for a half-maximal effect (EC50) in the assay with VZV (setting [4]) was over 4 µg/mL.
On to `CCCc1cc(=O)oc2cc(OC(=O)C(C)(C)C)c3c(c12)OC(C)(C)C=C3`, for which the EC50 in the assay with HIV was over 7 µg/mL; in the assay on EBV (setting [5]) it was 0.39 µg/mL (≈ 1.05 µM); in the assay with HBV, over 10 µg/mL; in the assay with Measles Virus (setting [2]), 0.2 µg/mL (≈ 0.54 µM); in the assay with Measles Virus (setting [3]) it was 0.6 µg/mL (≈ 1.62 µM); in the assay on VZV (setting [4]), over 100 µg/mL.
With `CCCc1cc(=O)oc2cc(OS(=O)(=O)c3ccc(C)cc3)c3c(c12)OC(C)(C)C=C3`, the EC50 with HIV was 1.6 µg/mL (≈ 3.63 µM); with EBV (setting [5]), 0.2 µg/mL (≈ 0.454 µM); with HBV it was over 10 µg/mL; with Measles Virus (readout not stated, read-out: Antiviral Activities (EC50) Measles) it was over 100 µg/mL; in assay [1], over 100 µg/mL; with Rhinovirus (setting [6]) it was over 100 µg/mL. Also, the EC50 with VZV (setting [4]) was over 100 µg/mL.
For `CCCc1cc(=O)oc2cc(O)c3c(c12)OC(C)(C)C=C3`, the EC50 in the assay with EBV (setting [5]) is over 50 µg/mL; with HBV it was over 10 µg/mL; in the assay on Measles Virus (setting [2]) it was 0.5 µg/mL (≈ 1.75 µM); in the assay on Measles Virus (setting [3]), 0.6 µg/mL (≈ 2.1 µM); in assay [1], 1 µg/mL (≈ 3.49 µM); in the assay with VZV (setting [4]), 89 µg/mL (≈ 311 µM).
Consider `CCCc1cc(=O)oc2cc(OCC(C)(C)C(=O)O)c3c(c12)OC(C)(C)C=C3`, for which the EC50 is over 8 µg/mL with HIV; 2.6 µg/mL (≈ 6.73 µM) in the assay with HBV; over 100 µg/mL with Measles Virus (setting [2]); over 100 µg/mL with Measles Virus (setting [3]); over 100 µg/mL in assay [1]; 10 µg/mL (≈ 25.9 µM) in the assay with Rhinovirus (CPE inhibition, read-out: Antiviral Activities (EC50) Rhinovirus (CPE)). Further, the EC50 in the assay on Rhinovirus (neutral red (NR) dye uptake, read-out: Antiviral Activities (EC50) Rhinovirus (NR)) is 1 µg/mL (≈ 2.59 µM).
As to `CCCc1cc(=O)oc2cc(OC(C)CCO)c3c(c12)OC(C)(C)C=C3` (stereo not drawn), the EC50 with HIV was 1.5 µg/mL (≈ 4.18 µM).
Same read-out and setting: the figure for `CCCc1cc(=O)oc2cc(OC(C)CCO[Si](C)(C)C(C)(C)C)c3c(c12)OC(C)(C)C=C3` (stereo not drawn) is over 18 µg/mL.
As for `CCCc1cc(=O)oc2cc(O)cc(O)c12`, the half-maximal effective concentration (EC50) in the assay with EBV (human gammaherpesvirus 4, read-out: Antiviral Activities (EC50) EBV) was over 50 µg/mL; in the assay on HBV it was over 2.2 µg/mL; in the assay on Measles Virus (setting [2]), over 100 µg/mL; with Measles Virus (setting [3]), over 100 µg/mL; in assay [1], 6 µg/mL (≈ 27.2 µM); in the assay on Rhinovirus (setting [6]), 27 µg/mL (≈ 123 µM). The EC50 in the assay with VZV (Human alphaherpesvirus 3, Fibroblast, read-out: Antiviral Activities (EC50) VZV) was determined as 5.9 µg/mL (≈ 26.8 µM).

Values taken from patent US20030176494A1, “Novel coumarin and chromene compounds and methods of preparation and use thereof for treating or preventing viral infections” (priority 2001, published 2003).
